One data set in a line: Hygroscopicity test. In kind it is physicochemical. To be noted: for hygroscopicity: 75% RH and 25° C. for 24 h; for hygroscopicity compared to the amorphous form: conclusion from Table 9. The text has this: (§1) The amorphous form of the compound represented by Formula I prepared in Preparation Example, the crystal form A of the compound represented by Formula I prepared in Example 1, the crystal form B of the compound represented by Formula I prepared in Example 9, the crystal form C of the compound represented by Formula I prepared in Example 12, the crystal form D of the compound represented by Formula I prepared in Example 17, and the crystal form E of the compound represented by Formula I prepared in Example 20 were placed in an environment of 75% RH and 25° C. for 24 h and then each was weighed to calculate the hygroscopicity.

Data set [1] is described as follows: Fluidity test (angle of repose). In kind it is physicochemical. To be noted: for fluidity compared to the amorphous form: conclusion from Table 8.
From the text: as §1, with “measured for angle of repose, and the specific results are shown” for “placed”, “Table 8 below: […]” for “an environment of 75% RH and 25° C. for 24 h and then each was weighed to calculate the hygroscopicity.”

The nature of another data set: Granularity test. It is filed as physicochemical.
From the text: as §1, with “measured for granularity, and the specific results are shown” for “placed”, “Table 7 below: […]” for “an environment of 75% RH and 25° C. for 24 h and then each was weighed to calculate the hygroscopicity.”

Data set [2] is described as follows: Stability test (purity and XRPD pattern after 30 days storage). In kind it is physicochemical. To be noted: for stability compared to the amorphous form: conclusion from Table 6. As to the method: X-ray powder diffraction instrument and test conditions involved in the present disclosure: the model of the X-ray diffraction instrument was Rigaku MiniFlex-600 Cu target; the operation method included a scanning speed of 10°/min and scanning step width of 0.01°.
High-performance liquid chromatography (HPLC) test conditions involved in the present disclosure: the model of the liquid chromatograph was Agilent 1260; the chromatographic column was Welch XB C-18 250 mm*4.6 mm 3 μm; the detection wavelength was 260 nm; and the column temperature was 40° C.
The amorphous form of compound represented by Formula I prepared in the described preparation examples, the crystal form A of the compound represented by Formula I prepared in Example 1, the crystal form B of the compound represented by Formula I prepared in Example 9, the crystal form C of the compound represented by Formula I prepared in Example 12, the crystal form D of the compound represented by Formula I prepared in Example 17, and the crystal form E of the compound represented by Formula I prepared in Example 20 were placed under various conditions: 75% RH, 92.5% RH, 40° C., 60° C., and illumination for 30 days, the X-ray powder diffraction pattern and purity of each crystal form were determined, and the specific results are shown in Table 6.

The target of a further data set is RET kinase (Homo sapiens, UniProt P07949). To be noted: stated for WO2020/207419A1; cited from earlier work.

Structures are written as SMILES.

Chain of RET kinase (P07949 29-1114): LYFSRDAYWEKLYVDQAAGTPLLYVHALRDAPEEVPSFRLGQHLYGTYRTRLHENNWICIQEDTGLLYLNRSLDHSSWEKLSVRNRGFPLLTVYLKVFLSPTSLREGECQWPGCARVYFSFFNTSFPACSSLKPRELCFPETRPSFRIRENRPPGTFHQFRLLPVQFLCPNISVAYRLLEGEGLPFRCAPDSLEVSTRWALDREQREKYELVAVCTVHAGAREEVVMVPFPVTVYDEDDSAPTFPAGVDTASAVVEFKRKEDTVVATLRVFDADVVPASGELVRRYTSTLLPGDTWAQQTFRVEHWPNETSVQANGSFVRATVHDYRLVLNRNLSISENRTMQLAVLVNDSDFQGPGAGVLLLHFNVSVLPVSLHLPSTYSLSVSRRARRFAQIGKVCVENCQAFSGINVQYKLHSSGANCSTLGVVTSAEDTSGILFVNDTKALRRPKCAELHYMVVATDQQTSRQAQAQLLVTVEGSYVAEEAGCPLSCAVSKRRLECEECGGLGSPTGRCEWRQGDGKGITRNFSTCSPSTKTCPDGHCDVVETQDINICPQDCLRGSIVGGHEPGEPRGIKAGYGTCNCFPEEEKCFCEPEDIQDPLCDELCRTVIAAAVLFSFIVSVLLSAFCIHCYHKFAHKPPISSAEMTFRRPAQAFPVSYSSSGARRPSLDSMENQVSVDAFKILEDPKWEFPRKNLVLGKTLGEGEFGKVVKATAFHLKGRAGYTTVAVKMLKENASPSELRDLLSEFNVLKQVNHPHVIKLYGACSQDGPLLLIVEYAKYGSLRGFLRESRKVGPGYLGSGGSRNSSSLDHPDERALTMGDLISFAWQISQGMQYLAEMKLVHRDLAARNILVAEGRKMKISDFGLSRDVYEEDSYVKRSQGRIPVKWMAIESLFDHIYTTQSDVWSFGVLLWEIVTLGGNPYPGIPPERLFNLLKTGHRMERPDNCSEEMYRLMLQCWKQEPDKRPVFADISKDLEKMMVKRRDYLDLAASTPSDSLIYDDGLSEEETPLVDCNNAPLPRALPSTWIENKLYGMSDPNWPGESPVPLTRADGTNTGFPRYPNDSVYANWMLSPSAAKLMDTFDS

Regarding `Cc1cc(Nc2cc(C)[nH]n2)nc(N2CC3CCC(C2)N3C(=O)c2ccc(-n3cc(F)cn3)nn2)n1` [amorphous form, (6-(4-fluoro-1H-pyrazol-1-yl)pyridazin-3-yl)(3-(4-methyl-6-((5-methyl-1H-pyrazol-3-yl)amino)pyrimidin-2-yl) 3,8-diazabicyclo[3.2.1]octane-8-yl) methanone, reference compound], the hygroscopicity in the data set “Hygroscopicity test” came out at 0.45%. Further, the angle of repose in data set [1] (measurement 1) is reported as 43.8°; in data set [1] (measurement 2) it was 44.3°; in data set [1] (measurement 3) it was 43.4°. The “D50 (granularity)” value in the data set “Granularity test” came to 3.52 μm. For the same molecule, in the data set “Granularity test”, the “D90 (granularity)” value stood at 18.45 μm. In the data set “Granularity test” (conclusion from Table 7), the “granularity compared to crystal forms A, B, C, D and E” value is given as “significantly smaller”. For the same molecule, the “D50 of amorphous form relative to the crystal form D50” value in “Granularity test” (versus crystal forms A-E) is recorded as “not more than 12%”. Besides, the “D90 of amorphous form relative to the crystal form D90” value in the data set “Granularity test” (versus crystal forms A-E) is reported as “not more than 25%”. In addition, the purity is on record as 96.77 in data set [2] (day 0); 96.17 (its in data set [2] (day 30 at 40° C.); 95.98 (its in data set [2] (day 30 at 60° C.); 95.94 in data set [2] (day 30 under 75% RH); 95.23 in data set [2] (day 30 under 92.5% RH); 94.37 in data set [2] (day 30 under illumination). The “X-ray powder diffraction pattern after storage” value in data set [2] (day 30 at 40° C.) and in data set [2] (day 30 at 60° C.) was “changes)” throughout.

For `Cc1cc(Nc2cc(C)[nH]n2)nc(N2CC3CCC(C2)N3C(=O)c2ccc(-n3cc(F)cn3)nn2)n1` [compound represented by formula I, (6-(4-fluoro-1H-pyrazol-1-yl)pyridazin-3-yl)(3-(4-methyl-6-((5-methyl-1H-pyrazol-3-yl)amino)pyrimidin-2-yl)-3,8-diazabicyclo[3.2.1]octan-8-yl) methanone], the “effect of inhibiting RET kinase” value at RET kinase is “good effect of inhibiting RET kinase”.

Turning to `Cc1cc(Nc2cc(C)[nH]n2)nc(N2CC3CCC(C2)N3C(=O)c2ccc(-n3cc(F)cn3)nn2)n1` [crystal form A, (6-(4-fluoro-1H-pyrazol-1-yl)pyridazin-3-yl)(3-(4-methyl-6-((5-methyl-1H-pyrazol-3-yl)amino)pyrimidin-2-yl)-3,8-diazabicyclo[3.2.1]octan-8-yl) methanone], the hygroscopicity in the data set “Hygroscopicity test” is recorded as 0.02%. Moreover, the “hygroscopicity compared to the amorphous form” value in “Hygroscopicity test” is reported as “significantly better”. Besides, the “fluidity compared to the amorphous form” value in data set [1] is recorded as “significantly superior”. The figures for the angle of repose in data set [1] (measurement 1), in data set [1] (measurement 2) and in data set [1] (measurement 3) were 32.5°, 31.9° and 32.2°, respectively. Also, the “D50 (granularity)” value in the data set “Granularity test” came out at 38.62 μm. For the same molecule, the “D90 (granularity)” value in the data set “Granularity test” turned out to be 95.11 μm. Moreover, the “stability compared to the amorphous form” value in data set [2] is listed as “better stability”. Also, the purity is recorded as 99.85 in data set [2] (day 0); 99.80 in data set [2] (day 30 at 40° C.); 99.77 in data set [2] (day 30 at 60° C.); 99.67 in data set [2] (day 30 under 75% RH); 99.48 in data set [2] (day 30 under 92.5% RH); 98.88 in data set [2] (day 30 under illumination).

As to `Cc1cc(Nc2cc(C)[nH]n2)nc(N2CC3CCC(C2)N3C(=O)c2ccc(-n3cc(F)cn3)nn2)n1` [crystal form B, (6-(4-fluoro-1H-pyrazol-1-yl)pyridazin-3-yl)(3-(4-methyl-6-((5-methyl-1H-pyrazol-3-yl)amino)pyrimidin-2-yl)-3,8-diazabicyclo[3.2.1]octan-8-yl) methanone], the hygroscopicity in the data set “Hygroscopicity test” amounted to 0.05%. The “hygroscopicity compared to the amorphous form” value in the data set “Hygroscopicity test” is “significantly better”. The “fluidity compared to the amorphous form” value in data set [1] is “significantly superior”. Besides, the angle of repose in data set [1] (measurement 1) is given as 33.4°; in data set [1] (measurement 2), 34.1°; in data set [1] (measurement 3), 34.2°. In “Granularity test”, the “D50 (granularity)” value came out at 32.53 μm. Moreover, the “D90 (granularity)” value in the data set “Granularity test” came to 86.77 μm. Moreover, in data set [2], the “stability compared to the amorphous form” value is on record as “better stability”. Further, the purity was determined as 99.80 in data set [2] (day 0); 99.68 in data set [2] (day 30 at 40° C.); 99.62 in data set [2] (day 30 at 60° C.); 99.52 in data set [2] (day 30 under 75% RH); 99.23 in data set [2] (day 30 under 92.5% RH); 98.56 in data set [2] (day 30 under illumination).

`Cc1cc(Nc2cc(C)[nH]n2)nc(N2CC3CCC(C2)N3C(=O)c2ccc(-n3cc(F)cn3)nn2)n1` [crystal form C, (6-(4-fluoro-1H-pyrazol-1-yl)pyridazin-3-yl)(3-(4-methyl-6-((5-methyl-1H-pyrazol-3-yl)amino)pyrimidin-2-yl)-3,8-diazabicyclo[3.2.1]octan-8-yl) methanone] registered a hygroscopicity in “Hygroscopicity test” of 0.06%. Besides, the “hygroscopicity compared to the amorphous form” value in “Hygroscopicity test” was “significantly better”. Also, the “fluidity compared to the amorphous form” value in data set [1] is given as “significantly superior”. Moreover, the figures for the angle of repose in data set [1] (measurement 1), in data set [1] (measurement 2) and in data set [1] (measurement 3) were 33.8°, 33.9° and 33.2.°, respectively. In addition, the “D50 (granularity)” value in the data set “Granularity test” is on record as 31.58 μm. Also, in “Granularity test”, the “D90 (granularity)” value is 79.47 μm. The “stability compared to the amorphous form” value in data set [2] is “better stability”. Moreover, the purity was found to be 99.75 in data set [2] (day 0); 99.51 in data set [2] (day 30 at 40° C.); 99.38 in data set [2] (day 30 at 60° C.); 99.45 in data set [2] (day 30 under 75% RH); 99.08 in data set [2] (day 30 under 92.5% RH); 98.22 in data set [2] (day 30 under illumination).

Take `Cc1cc(Nc2cc(C)[nH]n2)nc(N2CC3CCC(C2)N3C(=O)c2ccc(-n3cc(F)cn3)nn2)n1` [crystal form D, (6-(4-fluoro-1H-pyrazol-1-yl)pyridazin-3-yl)(3-(4-methyl-6-((5-methyl-1H-pyrazol-3-yl)amino)pyrimidin-2-yl)-3,8-diazabicyclo[3.2.1]octan-8-yl) methanone]: the hygroscopicity in the data set “Hygroscopicity test” is 0.08%. Further, the “hygroscopicity compared to the amorphous form” value in the data set “Hygroscopicity test” is “significantly better”. Also, in data set [1], the “fluidity compared to the amorphous form” value is recorded as “significantly superior”. For the same molecule, the angle of repose in data set [1] (measurement 1) was 33.0°; in data set [1] (measurement 2) it was 33.8°; in data set [1] (measurement 3), 33.3°. In “Granularity test”, the “D50 (granularity)” value amounted to 33.64 μm. Also, in “Granularity test”, the “D90 (granularity)” value is 83.56 μm. Moreover, the “stability compared to the amorphous form” value in data set [2] was “better stability”. Also, the purity in data set [2] (day 0) is reported as 99.60; in data set [2] (day 30 at 40° C.) it was 99.42; in data set [2] (day 30 at 60° C.), 99.33; in data set [2] (day 30 under 75% RH), 99.35; in data set [2] (day 30 under 92.5% RH), 99.01; in data set [2] (day 30 under illumination), 98.23.

Molecule `Cc1cc(Nc2cc(C)[nH]n2)nc(N2CC3CCC(C2)N3C(=O)c2ccc(-n3cc(F)cn3)nn2)n1` [crystal form E, (6-(4-fluoro-1H-pyrazol-1-yl)pyridazin-3-yl)(3-(4-methyl-6-((5-methyl-1H-pyrazol-3-yl)amino)pyrimidin-2-yl)-3,8-diazabicyclo[3.2.1]octan-8-yl) methanone] showed a hygroscopicity in the data set “Hygroscopicity test” of 0.05%. Also, in the data set “Hygroscopicity test”, the “hygroscopicity compared to the amorphous form” value is listed as “significantly better”. Moreover, in data set [1], the “fluidity compared to the amorphous form” value is “significantly superior”. Further, the results for the angle of repose in data set [1] (measurement 1), in data set [1] (measurement 2) and in data set [1] (measurement 3) were 34.2°, 35.1° and 34.8°, respectively. In addition, the “D50 (granularity)” value in “Granularity test” is 30.36 μm. Also, in “Granularity test”, the “D90 (granularity)” value amounted to 75.89 μm. Besides, the “stability compared to the amorphous form” value in data set [2] is “better stability”. Further, the purity came out at 99.76 in data set [2] (day 0); 99.70 in data set [2] (day 30 at 40° C.); 99.65 in data set [2] (day 30 at 60° C.); 99.60 in data set [2] (day 30 under 75% RH); 99.50 in data set [2] (day 30 under 92.5% RH); 98.65 in data set [2] (day 30 under illumination).

Values taken from US20260258020A1, “CRYSTAL FORM OF PIPERAZINE AMIDE DERIVATIVE, PREPARATION METHOD THEREFOR AND USE THEREOF” (ZHEJIANG HISUN PHARMACEUTICAL CO., LTD., priority 2022, published 2026).
